# Key:
# CFTR = target: T1, CFTR (Homo sapiens, UniProt P13569); assay: T84 assay (FLIPR membrane potential dye, forskolin/IBMX-stimulated CFTR channel activity); format: cell-based; details: average of at least 2 runs unless annotated n = 1
# T1 construct: host or cells: T84 human colonic cells
# Description: Human colonic T84 cells are acquired from the European Collection of Cell Cultures (ECACC) and are grown in standard culture conditions as described by the supplier. On the day before assay 25,000 T84 cells per well are plated into standard black walled, clear bottom 384-well assay plates in standard growth medium consisting of DMEM:F12 with 10% FBS and incubated overnight. On the day of the assay the plates are washed using a standard assay buffer (HBSS with 10 mM Hepes) and incubated for 15 minutes in serum free cell culture medium before the addition of a commercially available membrane potential sensitive fluorescent dye (FLIPR Red membrane potential dye, Molecular Devices Corporation). T84 cells are incubated with the FLIPR Red membrane potential dye for 45 minutes in the presence and absence of test compound before being transferred to a commercially available fluorescence imaging plate reader (FLIPR384, Molecular Devices Corporation). Fluorescence levels are monitored continuously every second for 150 seconds; after an initial 10 second baseline, CFTR channel activity is stimulated through the addition of 10 μM forskolin in the presence of 100 μM of the phosphodiesterase inhibitor iso-butyl-methylxanthine (IBMX). Addition of the forskolin leads to the activation of intracellular adenylyl cylase 1, elevating cAMP levels and results in the phosphorylation and opening of CFTR anion channels. CFTR channel opening causes chloride ion efflux and subsequent depolarization of the cells, which is measured by an increase in fluorescence. CFTR inhibitor compounds prevent cell depolarization and the associated increase in fluorescence.
# Unless otherwise indicated, the IC50 values are reported as an average of at least 2 runs. Where only 1 run is used, it is indicated by the annotation “n=1.”
# [1] = tested on: cholera toxin (CTX) induced net fluid secretion in small intestine loops; set-up: species or system mice (CD1 strain); details: mouse, in vivo
# T1 sequence (P13569 whole entry): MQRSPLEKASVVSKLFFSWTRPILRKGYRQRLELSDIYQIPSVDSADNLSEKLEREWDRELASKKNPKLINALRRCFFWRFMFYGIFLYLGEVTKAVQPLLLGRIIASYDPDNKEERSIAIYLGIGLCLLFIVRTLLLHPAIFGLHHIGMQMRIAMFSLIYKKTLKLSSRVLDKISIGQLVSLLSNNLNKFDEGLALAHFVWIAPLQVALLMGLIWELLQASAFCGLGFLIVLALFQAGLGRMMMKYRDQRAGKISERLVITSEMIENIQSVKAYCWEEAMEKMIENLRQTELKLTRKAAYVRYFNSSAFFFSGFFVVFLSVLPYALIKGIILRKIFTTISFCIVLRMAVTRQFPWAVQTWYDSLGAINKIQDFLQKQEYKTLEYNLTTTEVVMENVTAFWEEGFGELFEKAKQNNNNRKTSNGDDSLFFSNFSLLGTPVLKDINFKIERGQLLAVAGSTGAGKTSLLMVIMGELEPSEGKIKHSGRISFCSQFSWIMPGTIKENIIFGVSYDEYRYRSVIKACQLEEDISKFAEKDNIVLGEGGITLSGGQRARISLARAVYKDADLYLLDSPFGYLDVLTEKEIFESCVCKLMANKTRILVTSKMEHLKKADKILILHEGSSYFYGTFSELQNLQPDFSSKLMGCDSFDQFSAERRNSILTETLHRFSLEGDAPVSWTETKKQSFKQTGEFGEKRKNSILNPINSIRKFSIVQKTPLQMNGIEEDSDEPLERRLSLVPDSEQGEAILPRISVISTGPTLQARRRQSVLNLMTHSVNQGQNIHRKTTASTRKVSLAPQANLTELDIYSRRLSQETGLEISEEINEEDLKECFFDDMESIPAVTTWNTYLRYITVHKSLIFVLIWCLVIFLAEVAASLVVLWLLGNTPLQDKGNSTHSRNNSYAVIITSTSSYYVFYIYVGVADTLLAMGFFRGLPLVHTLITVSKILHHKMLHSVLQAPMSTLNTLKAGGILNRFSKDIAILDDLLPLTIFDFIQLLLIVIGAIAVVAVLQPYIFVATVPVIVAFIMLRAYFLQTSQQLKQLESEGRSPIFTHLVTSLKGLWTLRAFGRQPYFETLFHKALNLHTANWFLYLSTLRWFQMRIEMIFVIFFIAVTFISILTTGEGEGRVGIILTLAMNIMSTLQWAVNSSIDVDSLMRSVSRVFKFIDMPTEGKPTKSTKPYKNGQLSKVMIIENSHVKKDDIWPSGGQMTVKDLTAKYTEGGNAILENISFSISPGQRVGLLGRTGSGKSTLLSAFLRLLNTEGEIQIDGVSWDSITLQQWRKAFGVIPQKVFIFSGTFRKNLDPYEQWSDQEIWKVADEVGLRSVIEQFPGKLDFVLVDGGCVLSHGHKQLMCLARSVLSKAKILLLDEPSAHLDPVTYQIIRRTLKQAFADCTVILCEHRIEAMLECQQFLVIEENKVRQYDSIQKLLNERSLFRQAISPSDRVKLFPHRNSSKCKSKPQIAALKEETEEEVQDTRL
Structure (SMILES),IC50 (CFTR) [µM],closed loop % inhibition [1] [%]
"CS(=O)(=O)Nc1cccc(-c2ccc(OCCc3ccc(Cl)cc3)nn2)c1 [Compound 1, N-(3-(6-(4-chlorophenethoxy)pyridazin-3-yl)phenyl)methanesulfonamide]",9.79,–
"O=S(=O)(Nc1cccc(-c2ccc(OCCc3ccc(Cl)cc3)nn2)c1)C(F)(F)F [Compound 2, N-(3-(6-(4-chlorophenethoxy)pyridazin-3-yl)phenyl)-1,1,1-trifluoromethanesulfonamide]",5.79,98.2
"N#Cc1ccc(S(=O)(=O)Nc2cccc(-c3ccc(OCCc4ccc(Cl)cc4)nn3)c2)cc1 [Compound 3, N-(3-(6-(4-chlorophenethoxy)pyridazin-3-yl)phenyl)-4-cyanobenzenesulfonamide]",17.2,–
"O=S(=O)(Nc1cccc(-c2ccc(OCCc3ccc(Cl)cc3)nn2)c1)c1ccc(N2CCOCC2)nc1 [Compound 4, N-(3-(6-(4-chlorophenethoxy)pyridazin-3-yl)phenyl)-6-morpholinopyridine-3-sulfonamide]",5.55,–
"CC(=O)Nc1ccc(S(=O)(=O)Nc2cccc(-c3ccc(OCCc4ccc(Cl)cc4)nn3)c2)cc1 [Compound 5, N-(4-(N-(3-(6-(4-chlorophenethoxy)pyridazin-3-yl)phenyl)sulfamoyl)phenyl)acetamide]",27.7,–
"CCN(Cc1ccccc1)c1ccc(-c2cccc(NS(=O)(=O)N(C)C)c2)nn1 [Compound 6, N-(3-(6-(benzyl(ethyl)amino)pyridazin-3-yl)phenyl)dimethylaminosulfonamide]",1.4,–
"CCN(Cc1ccccc1)c1ccc(-c2cccc(NS(C)(=O)=O)c2)nn1 [Compound 7, N-(3-(6-(benzyl(ethyl)amino)pyridazin-3-yl)phenyl)methanesulfonamide]",2.23,–
"CCN(Cc1ccccc1)c1ccc(-c2cccc(NS(=O)(=O)c3ccc(C)cc3)c2)nn1 [Compound 8, N-(3-(6-(benzyl(ethyl)amino)pyridazin-3-yl)phenyl)-4-methylbenzenesulfonamide]",0.05,–
"CCN(Cc1ccccc1)c1ccc(-c2cccc(NS(=O)(=O)c3cccc(Br)c3)c2)nn1 [Compound 9, N-(3-(6-(benzyl(ethyl)amino)pyridazin-3-yl)phenyl)-3-bromobenzenesulfonamide]",0.05,–
"CCN(Cc1ccccc1)c1ccc(-c2cccc(NS(=O)(=O)C(F)(F)F)c2)nn1 [Compound 10, N-(3-(6-(benzyl(ethyl)amino)pyridazin-3-yl)phenyl)-1,1,1-trifluoromethanesulfonamide]",7.92,–
"COc1ccc(S(=O)(=O)NC(=O)c2cccc(-c3ccc(OCCc4ccc(Cl)cc4)nn3)c2)cc1 [Compound 11, 3-(6-(4-chlorophenethoxy)pyridazin-3-yl)-N-(4-methoxyphenylsulfonyl)benzamide]",11.4,–
"O=C(NS(=O)(=O)c1ccc(F)cc1)c1cccc(-c2ccc(OCCc3ccc(Cl)cc3)nn2)c1 [Compound 12, 3-(6-(4-chlorophenethoxy)pyridazin-3-yl)-N-(4-fluorophenylsulfonyl)benzamide]",11.7,–
"CCS(=O)(=O)NC(=O)c1cccc(-c2ccc(OCCc3ccc(Cl)cc3)nn2)c1 [Compound 13, 3-(6-(4-chlorophenethoxy)pyridazin-3-yl)-N-(ethylsulfonyl)benzamide]",18.7,–
"CC(C)(C)c1ccc(S(=O)(=O)NC(=O)c2cccc(-c3ccc(OCCc4ccc(Cl)cc4)nn3)c2)cc1 [Compound 14, N-(4-tert-butylphenylsulfonyl)-3-(6-(4-chlorophenethoxy)pyridazin-3-yl)benzamide]",20.1,–
"O=C(NS(=O)(=O)c1ccc(F)c(F)c1)c1cccc(-c2ccc(OCCc3ccc(Cl)cc3)nn2)c1 [Compound 15, 3-(6-(4-chlorophenethoxy)pyridazin-3-yl)-N-(3,4-difluorophenylsulfonyl)benzamide]",27.7,–
"Cc1ccc(S(=O)(=O)Nc2cccc(-c3ccc(NCc4ccccc4)nn3)c2)cc1 [Compound 16, N-(3-(6-(benzylamino)pyridazin-3-yl)phenyl)-4-methylbenzenesulfonamide]",2.24,–
"O=C(NS(=O)(=O)Cc1ccccc1)c1cccc(-c2ccc(OCCc3ccc(Cl)cc3)nn2)c1 [Compound 17, N-(benzylsulfonyl)-3-(6-(4-chlorophenethoxy)pyridazin-3-yl)benzamide]",6.05,–
"CC(C)(C)c1ccc(S(=O)(=O)Nc2cccc(-c3ccc(OCCc4ccc(Cl)cc4)nn3)c2)cc1 [Compound 18, 4-tert-butyl-N-(3-(6-(4-chlorophenethoxy)pyridazin-3-yl)phenyl)benzenesulfonamide]",8.09,–
"O=C(NS(=O)(=O)c1ccc(F)c(F)c1)c1cccc(-c2ccc(OCCc3ccc(Cl)cc3)nn2)c1 [Compound 19, 3-(6-(4-chlorophenethoxy)pyridazin-3-yl)-N-(3,4-difluorophenylsulfonyl)benzamide]",13.9,–
"O=S(=O)(CC(F)(F)F)Nc1cccc(-c2ccc(OCCc3ccc(Cl)cc3)nn2)c1 [Compound 20, N-(3-(6-(4-chlorophenethoxy)pyridazin-3-yl)phenyl)-2,2,2-trifluoroethanesulfonamide]",14.8,–
"O=C(NS(=O)(=O)c1ccc(F)cc1F)c1cccc(-c2ccc(OCCc3ccc(Cl)cc3)nn2)c1 [Compound 21, 3-(6-(4-chlorophenethoxy)pyridazin-3-yl)-N-(2,4-difluorophenylsulfonyl)benzamide]",18.7,–
"O=S(=O)(Nc1ccc(-c2ccc(OCCc3ccc(Cl)cc3)nn2)cc1)C(F)(F)F [Compound 22, N-(4-(6-(4-chlorophenethoxy)pyridazin-3-yl)phenyl)-1,1,1-trifluoromethanesulfonamide]",2.84,–
"Cc1ccc(S(=O)(=O)NC(=O)c2ccc(-c3ccc(OCCc4ccc(Cl)cc4)nn3)cc2)cc1 [Compound 23, 4-(6-(4-chlorophenethoxy)pyridazin-3-yl)-N-tosylbenzamide]",3.03,–
"CC(C)CS(=O)(=O)Nc1ccc(-c2ccc(OCCc3ccc(Cl)cc3)nn2)cc1 [Compound 24, N-(4-(6-(4-chlorophenethoxy)pyridazin-3-yl)phenyl)-2-methylpropane-1-sulfonamide]",15.4,–
"CCN(Cc1ccccc1)c1ccc(-c2cccc(N3CCCS3(=O)=O)c2)nn1 [Compound 26, Benzyl-{6-[3-(1,1-dioxo-isothiazolidin-2-yl)-phenyl]-pyridazin-3-yl}-ethylamine]",3.77,–

# Source: patent US20120129858A1, “COMPOUNDS, COMPOSITIONS AND METHODS COMPRISING PYRIDAZINE SULFONAMIDE DERIVATIVES” (INSTITUTE FOR ONEWORLD HEALTH, priority 2009, published 2012)
